Measurements from ChEMBL document CHEMBL5126532, “Synthetic approaches and structural diversity of triazolylbutanols derived from voriconazole in the antifungal drug development” (Eur J Med Chem, 2022).
Converted amounts (≈) assume the structure as drawn. Values belong to the compound of their own block, whether it stands above or below them.

What was measured:
Assay type in all cases: functional
Candida albicans [1] = assay: Antifungal activity against Candida albicans
Aspergillus sp. = assay: Antifungal activity against Aspergillus sp; settings: Aspergillus sp.; read-out: MIC
Cryptococcus neoformans [2] = assay: Antifungal activity against Cryptococcus neoformans; settings: Cryptococcus neoformans; read-out: MIC
Candida = assay: Antifungal activity against Candida spp.
Aspergillus fumigatus [3] = assay: Antifungal activity against Aspergillus fumigatus
Candida parapsilosis = assay: Antifungal activity against Candida parapsilosis; settings: Lodderomyces parapsilosis
Candida albicans [4] = assay: Antifungal activity against Candida albicans assessed as inhibition of fungal growth incubated for 20 hrs
Candida albicans [5] = assay: Antifungal activity against Candida albicans TIMM1756 assessed as inhibition of fungal growth incubated for 20 hrs
Cryptococcus neoformans [6] = assay: Antifungal activity against Cryptococcus neoformans TIMM1855 assessed as inhibition of fungal growth incubated for 68 hrs
Aspergillus fumigatus [7] = assay: In vivo antifungal activity against Aspergillus fumigatus infected in CDF1 mouse treated po 4 hrs after injection twice daily for 2 days measured on day 10; settings: 48 h, time 2 day
Aspergillus fumigatus [8] = assay: Antifungal activity against Aspergillus fumigatus IFO6344 assessed as inhibition of fungal growth incubated for 20 hrs
Aspergillus fumigatus [9] = assay: Antifungal activity against Aspergillus fumigatus TIMM1728 assessed as inhibition of fungal growth incubated for 20 hrs
Candida albicans [10] = assay: In vivo antifungal activity against Candida albicans infected in CDF1 mouse treated po 4 hrs after injection twice daily for 2 days measured on day 10; settings: 48 h, time 2 day
Candida albicans [11] = assay: Antifungal activity against Candida albicans TIMM1850 assessed as inhibition of fungal growth incubated for 20 hrs
Cryptococcus neoformans [12] = assay: Antifungal activity against Cryptococcus neoformans TIMM1740 assessed as inhibition of fungal growth incubated for 68 hrs
Candida albicans [13] = assay: Antifungal activity against Candida albicans SANK 51486 by 96-well microplate method
Aspergillus flavus = assay: Antifungal activity against Aspergillus flavus SANK 18497 by 96-well microplate method
Aspergillus fumigatus [14] = assay: Antifungal activity against Aspergillus fumigatus SANK 10569 by 96-well microplate method
Cryptococcus neoformans [15] = assay: Antifungal activity against Cryptococcus neoformans TIMM 1855 by 96-well microplate method

Structure (SMILES): C[C@@H](N1C(=O)N(c2ccc(-n3cnnn3)cc2)CC1O)[C@](O)(Cn1cncn1)c1ccc(F)cc1F (stereo in doubt; 140a)
MIC (Aspergillus sp.): 32 µg/mL (≈ 64.3 µM)
MIC (Cryptococcus neoformans [2]): 8 µg/mL (≈ 16.1 µM)
MIC (Candida): ≥ 0.25 µg/mL

Structure (SMILES): CC(C)n1ncn(-c2ccc(N3CCN([C@H](C)[C@](O)(Cn4cncn4)c4ccc(F)cc4F)CC3)cn2)c1=O
MIC (Aspergillus fumigatus [3]): 4 µg/mL (≈ 7.41 µM)
MIC (Candida parapsilosis): 0.25 µg/mL (≈ 0.463 µM)
MIC (Cryptococcus neoformans [2]): 0.5 µg/mL (≈ 0.927 µM)
MIC (Candida): 0.25 µg/mL (≈ 0.463 µM)

Structure (SMILES): C[C@@H](N1CC(O)N(c2ccc(-n3cnnn3)cc2)C1=O)[C@](O)(Cn1cncn1)c1ccc(F)cc1F (stereo not given in full)
MIC (Aspergillus sp.): > 64 µg/mL
MIC (Cryptococcus neoformans [2]): > 16 µg/mL
MIC (Candida): ≥ 4 µg/mL

Structure (SMILES): C[C@@H](N1CCN(c2ccc(-n3cnn(Cc4ccc(C(F)(F)F)cc4)c3=O)nc2)CC1)[C@](O)(Cn1cncn1)c1ccc(F)cc1F
MIC (Candida parapsilosis): 4 µg/mL (≈ 6.1 µM)

Structure (SMILES): CC(C)COC(=O)OC[n+]1cnn(C[C@](O)(c2ccc(F)cc2F)[C@@H](C)N2CCN(c3ccc(-n4cnnn4)cc3)C2=O)c1.[I-]
MIC (Candida albicans [4]): 0.016 µg/mL

Structure (SMILES): C[C@@H](N1CCN(c2ccc(-n3cnn(Cc4ccc(OC(F)(F)F)cc4)c3=O)cc2)CC1)[C@](O)(Cn1cncn1)c1ccc(F)cc1F
MIC (Aspergillus fumigatus [3]): 32 µg/mL (≈ 47.7 µM)

Structure (SMILES): C[C@@H](N1CCN(c2ccc(-n3cnn(Cc4cccc(C(F)(F)F)c4)c3=O)nc2)CC1)[C@](O)(Cn1cncn1)c1ccc(F)cc1F
MIC (Candida parapsilosis): 4 µg/mL (≈ 6.1 µM)

Structure (SMILES): C[C@@H](N1CCN(c2ccc(-n3cnn(Cc4cccc(C(F)(F)F)c4)c3=O)cn2)CC1)[C@](O)(Cn1cncn1)c1ccc(F)cc1F
MIC (Candida parapsilosis): 4 µg/mL (≈ 6.1 µM)

Structure (SMILES): C[C@@H](N1CCN(c2ccc(-n3cccn3)cc2)C1=O)[C@](O)(Cn1cncn1)c1ccc(F)cc1F
MIC (Candida albicans [5]): ≤ 0.001 µg/mL
MIC (Cryptococcus neoformans [6]): 0.016 µg/mL (≈ 0.0334 µM)
ED50 (Aspergillus fumigatus [7]): 4.4 mg/kg
MIC (Aspergillus fumigatus [8]): 0.25 µg/mL (≈ 0.521 µM)
MIC (Aspergillus fumigatus [9]): 0.25 µg/mL (≈ 0.521 µM)
ED50 (Candida albicans [10]): 2 mg/kg
MIC (Candida albicans [11]): ≤ 0.001 µg/mL
MIC (Cryptococcus neoformans [12]): 0.016 µg/mL (≈ 0.0334 µM)

Structure (SMILES): C[C@@H](S[C@H]1CO[C@H](/C=C/C=C/c2ccc(C#N)cc2F)OC1)[C@](O)(Cn1cncn1)c1cccc(F)c1F
MIC (Candida albicans [13]): ≤ 0.008 µg/mL
MIC (Aspergillus flavus): ≤ 0.008 µg/mL
MIC (Aspergillus fumigatus [14]): ≤ 0.008 µg/mL
MIC (Cryptococcus neoformans [15]): ≤ 0.008 µg/mL

Structure (SMILES): C[C@@H](N1CCN(c2ccc(-n3ccnn3)cc2)C1=O)[C@](O)(Cn1cncn1)c1ccc(F)cc1F
MIC (Candida albicans [5]): ≤ 0.001 µg/mL
MIC (Cryptococcus neoformans [6]): 0.016 µg/mL (≈ 0.0333 µM)
ED50 (Aspergillus fumigatus [7]): 4 mg/kg
MIC (Aspergillus fumigatus [8]): 0.25 µg/mL (≈ 0.52 µM)
MIC (Aspergillus fumigatus [9]): 0.25 µg/mL (≈ 0.52 µM)
ED50 (Candida albicans [10]): 0.18 mg/kg
MIC (Candida albicans [11]): ≤ 0.001 µg/mL
MIC (Cryptococcus neoformans [12]): 0.016 µg/mL (≈ 0.0333 µM)

Structure (SMILES): C[C@@H](N1CCN(c2ccc(-n3cnn(Cc4cc(C(F)(F)F)cc(C(F)(F)F)c4)c3=O)cn2)CC1)[C@](O)(Cn1cncn1)c1ccc(F)cc1F
MIC (Candida parapsilosis): 4 µg/mL (≈ 5.53 µM)

Structure (SMILES): C[C@@H](N1CCN(c2ccc(-n3cnnn3)cc2)C1=O)[C@](O)(Cn1c[n+](COC(=O)C(C)(C)C)cn1)c1ccc(F)cc1F.[I-]
MIC (Candida albicans [4]): 0.016 µg/mL

Structure (SMILES): CC(C)n1ncn(-c2ccc(N3CCN([C@H](C)[C@](O)(Cn4cncn4)c4ccc(F)cc4F)CC3)nc2)c1=O
MIC (Candida parapsilosis): 0.25 µg/mL (≈ 0.463 µM)

Structure (SMILES): C[C@@H](N1Cc2nc(-c3ccc(F)cc3)sc2C1=O)[C@](O)(Cn1cncn1)c1ccc(F)cc1F
MIC (Aspergillus sp.): 4 µg/mL (≈ 8.24 µM)
MIC (Cryptococcus neoformans [2]): 0.0312 µg/mL (≈ 0.0643 µM)
MIC (Candida): 0.0156 µg/mL (≈ 0.0321 µM)

Structure (SMILES): C[C@@H](N1CCN(c2ccc(-n3cnn(Cc4ccc(C(F)(F)F)cc4)c3=O)cn2)CC1)[C@](O)(Cn1cncn1)c1ccc(F)cc1F
MIC (Candida parapsilosis): 4 µg/mL (≈ 6.1 µM)

Structure (SMILES): C[C@@H](N1CCN(c2ccc(-n3cnn(Cc4cc(C(F)(F)F)cc(C(F)(F)F)c4)c3=O)nc2)CC1)[C@](O)(Cn1cncn1)c1ccc(F)cc1F
MIC (Candida parapsilosis): 4 µg/mL (≈ 5.53 µM)

Further lines, results first:

MIC80 (Candida albicans [1]): 0.0313 µg/mL (≈ 0.0652 µM)
Structure (SMILES): C[C@@H](OCc1cc(-c2c(F)cc(F)cc2F)no1)[C@](O)(Cn1cncn1)c1ccc(F)cc1F

MIC80 (Candida albicans [1]): 0.0313 µg/mL (≈ 0.0693 µM)
Structure (SMILES): C[C@@H](OCc1cc(-c2ccc(C#N)cc2)no1)[C@](O)(Cn1cncn1)c1ccc(F)cc1F

MIC80 (Candida albicans [1]): 0.0313 µg/mL (≈ 0.0679 µM)
Structure (SMILES): C[C@@H](OCc1cc(-c2cccc(Cl)c2)no1)[C@](O)(Cn1cncn1)c1ccc(F)cc1F

MIC80 (Candida albicans [1]): 0.0313 µg/mL (≈ 0.0613 µM)
Structure (SMILES): C[C@@H](OCc1cc(-c2ccc(OC(F)(F)F)cc2)no1)[C@](O)(Cn1cncn1)c1ccc(F)cc1F

MIC80 (Candida albicans [1]): 0.0313 µg/mL (≈ 0.0679 µM)
Structure (SMILES): C[C@@H](OCc1cc(-c2ccccc2Cl)no1)[C@](O)(Cn1cncn1)c1ccc(F)cc1F

MIC80 (Candida albicans [1]): 0.0313 µg/mL (≈ 0.0734 µM)
Structure (SMILES): C[C@@H](OCc1cc(-c2ccccc2)no1)[C@](O)(Cn1cncn1)c1ccc(F)cc1F

MIC80 (Candida albicans [1]): 0.0313 µg/mL (≈ 0.0711 µM)
Structure (SMILES): Cc1cccc(-c2cc(CO[C@H](C)[C@](O)(Cn3cncn3)c3ccc(F)cc3F)on2)c1

MIC80 (Candida albicans [1]): 0.0313 µg/mL (≈ 0.0677 µM)
Structure (SMILES): C[C@@H](OCc1cc(-c2c(F)cccc2F)no1)[C@](O)(Cn1cncn1)c1ccc(F)cc1F

MIC80 (Candida albicans [1]): 0.0313 µg/mL (≈ 0.0677 µM)
Structure (SMILES): C[C@@H](OCc1cc(-c2ccc(F)c(F)c2)no1)[C@](O)(Cn1cncn1)c1ccc(F)cc1F

MIC80 (Candida albicans [1]): 0.0313 µg/mL (≈ 0.0633 µM)
Structure (SMILES): C[C@@H](OCc1cc(-c2ccc(C(F)(F)F)cc2)no1)[C@](O)(Cn1cncn1)c1ccc(F)cc1F

MIC80 (Candida albicans [1]): 0.0313 µg/mL (≈ 0.0711 µM)
Structure (SMILES): Cc1ccccc1-c1cc(CO[C@H](C)[C@](O)(Cn2cncn2)c2ccc(F)cc2F)on1

MIC80 (Candida albicans [1]): 0.0313 µg/mL (≈ 0.0679 µM)
Structure (SMILES): C[C@@H](OCc1cc(-c2ccc(Cl)cc2)no1)[C@](O)(Cn1cncn1)c1ccc(F)cc1F
